Reference: PubChem BioAssay (NCI)
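Step 1: Grow cells in 96-well plates. Step 2: Expose to compound for 48 hours at 5 concentrations. Step 3: Interpolate endpoints linearly; if unreached, use highest concentration. Abbreviation: GI50, concentration required for 50% inhibition of growth. TGI: concentration producing complete growth inhibition.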

Experiments:
Experiment in all cases: NCI anticancer screen, dose series, 48 h
NCI/ADR-RES ovarian = system: NCI/ADR-RES ovarian
M14 melanoma = system: M14 melanoma
OVCAR-8 ovarian = system: OVCAR-8 ovarian
UO-31 renal = system: UO-31 renal
SF-268 CNS = system: SF-268 CNS
MALME-3M melanoma = system: MALME-3M melanoma
DU-145 prostate = system: DU-145 prostate
CAKI-1 renal = system: CAKI-1 renal
K-562 leukemia = system: K-562 leukemia
OVCAR-3 ovarian = system: OVCAR-3 ovarian

| SMILES | GI50 (NCI/ADR-RES ovarian) | TGI (NCI/ADR-RES ovarian) | GI50 (M14 melanoma) | TGI (M14 melanoma) | GI50 (OVCAR-8 ovarian) | TGI (OVCAR-8 ovarian) | GI50 (UO-31 renal) | TGI (UO-31 renal) | GI50 (SF-268 CNS) | TGI (SF-268 CNS) | GI50 (MALME-3M melanoma) | TGI (MALME-3M melanoma) | GI50 (DU-145 prostate) | TGI (DU-145 prostate) | GI50 (CAKI-1 renal) | TGI (CAKI-1 renal) | GI50 (K-562 leukemia) | TGI (K-562 leukemia) | GI50 (OVCAR-3 ovarian) | TGI (OVCAR-3 ovarian) |
| --- | --- | --- | --- | --- | --- | --- | --- | --- | --- | --- | --- | --- | --- | --- | --- | --- | --- | --- | --- | --- |
| [Cl][Hg][c]1ccc(Cl)s1 | 3.31 µM | 23.3 µM | 1.55 µM | 3.17 µM | 2.51 µM | 6.25 µM | 1.78 µM | 3.26 µM | 3.48 µM | 13.3 µM | 1.3 µM | 2.94 µM | 4.56 µM | 17.6 µM | 1.69 µM | 3.29 µM | 0.729 µM | 7.29 µM | – | – |
| C=C1C(=O)O[C@H]2C[C@@H]1CC/C(C)=C/CC/C(C)=C/CC[C@@]2(C)O | > 100 µM | > 100 µM | 44.4 µM | > 100 µM | 81.2 µM | > 100 µM | 30.9 µM | 87.4 µM | > 100 µM | > 100 µM | – | – | 45.3 µM | > 100 µM | 34.6 µM | > 100 µM | 20 µM | 50.2 µM | 51 µM | > 100 µM |
| O=c1c2ccccc2nc(/C=C(\O)c2ccncc2)n1-c1ccc(Cl)cc1 | – | – | – | > 100 µM | – | > 100 µM | – | > 100 µM | – | > 100 µM | – | > 100 µM | – | – | – | > 100 µM | – | > 100 µM | – | > 100 µM |
| COC(=O)c1ccccc1N1C(=O)Cc2ccccc2C1=O | – | – | – | – | – | > 100 µM | – | > 100 µM | – | > 100 µM | – | > 100 µM | – | – | – | – | – | > 100 µM | – | > 100 µM |
| CCOC(=O)Cc1csc(Nc2ccc(OCC)cc2)n1 | – | – | – | – | – | > 100 µM | – | > 100 µM | – | > 100 µM | – | > 100 µM | – | – | – | – | – | > 100 µM | – | > 100 µM |
| CCCCC(C(=O)CCC(=O)Nc1ccc(Cl)c(Cl)c1)C(=O)C(C)C (configuration not stated) | – | – | – | > 100 µM | – | > 100 µM | – | > 100 µM | – | > 100 µM | – | > 100 µM | – | – | – | > 100 µM | – | > 100 µM | – | > 100 µM |
| C(=N\Nc1ccccc1)/c1nc2ccccc2nc1/C=N/Nc1ccccc1 | – | – | – | 30 µM | – | 17 µM | – | > 84.6 µM | – | 29.3 µM | – | 41.6 µM | – | – | – | 21.4 µM | – | 20.5 µM | – | 31.9 µM |
| Nc1nc(Cl)cc(NCC(O)CO)n1 (configuration not stated) | – | – | – | > 100 µM | – | > 100 µM | – | > 100 µM | – | > 100 µM | – | > 100 µM | – | – | – | – | – | > 100 µM | – | > 100 µM |
| O=C(/C(=C/c1ccc([N+](=O)[O-])cc1)SCc1ccc(Cl)cc1)c1ccc(F)cc1 | 2.78 µM | 11.2 µM | 3.38 µM | 16.1 µM | 3.17 µM | 12.7 µM | 1.96 µM | 13.6 µM | 4.95 µM | 21.6 µM | 3.22 µM | 12.3 µM | 13.8 µM | > 57.3 µM | – | – | 2.45 µM | > 100 µM | 2.2 µM | 5.13 µM |
| COc1cc(O)c2c(c1)O[C@@H]1OCC[C@H]21 | – | – | – | > 100 µM | – | > 100 µM | – | > 100 µM | – | – | – | > 100 µM | – | – | – | – | – | > 100 µM | – | > 100 µM |
| CCC(O)C1Cc2c(C)cc3c(c2O1)C(=O)c1ccccc1C3=O (configuration not stated) | – | – | – | > 100 µM | – | > 100 µM | – | 61.2 µM | – | > 100 µM | – | 88.6 µM | – | – | – | > 100 µM | – | > 100 µM | – | > 100 µM |
| COc1ccc(Sc2nc3cc(N)cc(N)c3nc2-c2ccccc2)cc1 | > 100 µM | > 100 µM | > 100 µM | > 100 µM | > 100 µM | > 100 µM | > 100 µM | > 100 µM | > 100 µM | > 100 µM | 33.2 µM | 95 µM | 14.5 µM | > 100 µM | 9.71 µM | > 100 µM | 9.83 µM | > 100 µM | – | – |
| COc1ccc(Cn2cc3c(c2-c2ccccc2)CCc2cnoc2-3)cc1OC | 0.324 µM | 1.91 µM | 0.566 µM | > 100 µM | 3.48 µM | > 100 µM | 2.24 µM | > 100 µM | 3.68 µM | > 100 µM | – | – | – | – | 0.537 µM | > 100 µM | 0.33 µM | > 100 µM | 0.332 µM | 0.884 µM |
| O=C(c1ccccc1)C(c1ccccc1)C1(O)C(=O)Nc2ccc([N+](=O)[O-])cc21 (configuration not stated) | – | – | – | > 100 µM | – | > 100 µM | – | > 100 µM | – | > 100 µM | – | > 100 µM | – | – | – | > 100 µM | – | > 100 µM | – | – |
